Earlier results on three compounds are cited in PMC6835763, “Influence of Short Cationic Lipopeptides with Fatty Acids of Different Chain Lengths on Bacterial Biofilms Formed on Polystyrene and Hydrogel Surfaces” (Pharmaceutics, 2019).

Holding throughout (settings): cited from earlier work
Series [1] relates to PA biofilm. The text has this: (§1) They were ineffective against PM, which was difficult to eradicate with peptides (and antibiotics) in previously performed studies. PM can cause infections of the urinary tract, skin, subcutaneous tissue, and wounds. PM is known as a biofilm former, and an evident increase of PM resistance to broad-spectrum fluoroquinolones and cephalosporins has been observed. In the previous study, mature PM b ...

Series [2] concerns EC biofilm.
Text: as §1

The subject of series [3] is SA biofilms. Set-up: method as in PMID 24779193.
The subject of series [4] is PM biofilm.
Text: as §1

For the compound `O=C(N[C@H](CO)[C@H](O)c1ccc([N+](=O)[O-])cc1)C(Cl)Cl` [chloramphenicol], the “activity against PA biofilm” value in series [1] is “weak antibiofilm agents”. The “activity against EC biofilms” value in series [2] is given as “rather weak activity”. In addition, the “susceptibility of SA biofilms” value in series [3] was “resistant”.
For the compound `O=C(O)c1cn(C2CC2)c2cc(N3CCNCC3)c(F)cc2c1=O` [ciprofloxacin], the “susceptibility of mature PM biofilms” value in series [4] is “resistant”. Also, the “concentration eliminating PA biofilm” value in series [1] (3-day-old structures) was 4 µg/mL. Moreover, the “effective concentration against EC biofilm” value in series [2] was 1 µg/mL. In addition, the “susceptibility of SA biofilms” value in series [3] is on record as “resistant”.
As for neomycin, the “susceptibility of mature PM biofilms” value in series [4] is listed as “resistant”. The “activity against PA biofilm” value in series [1] is “weak antibiofilm agents”. For the same compound, in series [2], the “activity against EC biofilms” value was “rather weak activity”. Moreover, in series [3], the “susceptibility of SA biofilms” value is “resistant”.
